{"source": "paper PMC8752738", "about": "“A propolis-derived small molecule ameliorates metabolic syndrome in obese mice by targeting the CREB/CRTC2 transcriptional complex” (Nature Communications, 2022)", "key": {"[1]": {"molecular_target": "T1, endogenous CREB / CRTC2 interaction (Mus musculus, UniProt Q01147)", "T1 construct": "endogenous in cells; host or cells: mouse primary hepatocytes", "test": "Co-immunoprecipitation by anti-CRTC2 antibody, primary hepatocytes: CREB", "format": "cell-based", "description": "Fig. 2 APC blocks interaction between CREB and CRTC2. a Analysis of GST-CREB immunoprecipitated with overexpressed FLAG-CRTC2 from the lysates of HEK293T cells. APC (10 μM) was added to the culture media for 1 h and the following IP mixture. The relative gray density of FLAG in GST-pull-down fraction is shown as a bar graph (bottom). One of three independent experiments is presented (top, n = 3). Data are represented as mean ± SEM); P values were determined by one-way ANOVA followed Dunnett’s multiple comparisons test. b Analysis of HA-CRTC2 immunoprecipitated with endogenous CREB from primary hepatocyte lysates. […] Data are represented as mean ± SEM; P values were determined by one-way ANOVA followed Dunnett’s multiple comparisons test. c Immunoblotting analysis of endogenous CREB, CRTC2, and CBP interaction by an anti-CRTC2 antibody from the lysate of primary hepatocytes. […] Data are represented as mean ± SEM; P values were determined by two-way ANOVA followed Bonferroni’s multiple comparisons test. d Immunoblotting analysis of protein GST-CREB recovered HIS-CRTC2-S171A proteins purified from E. coli. […] Data are represented as mean ± SEM; P values were determined by one-way ANOVA followed Dunnett’s multiple comparisons test (compared with APC = 0). […]"}, "[2]": {"test_system": "promoter occupancy in primary hepatocytes", "test": "ChIP assays", "format": "cell-based, mouse", "conditions": "for ChIP: CBP, CRE-PGC1a, mean / ChIP: CBP, CRE-Pck1, mean: N=4"}, "[3]": {"molecular_target": "T2, CREB / HA-CRTC2 interaction (Mus musculus, UniProt Q01147)", "T2 construct": "expressed in transfected cells; host or cells: mouse primary hepatocytes infected with Ad-HA-Crtc2; CREB is endogenous", "test": "Co-immunoprecipitation of HA-CRTC2 with endogenous CREB, primary hepatocytes", "format": "cell-based", "conditions": "for HA/CREB in CREB-COIP fraction: Fig 2b replicates, AD-HA-CRTC2 +", "description": "Fig. 2 APC blocks interaction between CREB and CRTC2. a Analysis of GST-CREB immunoprecipitated with overexpressed FLAG-CRTC2 from the lysates of HEK293T cells. APC (10 μM) was added to the culture media for 1 h and the following IP mixture. The relative gray density of FLAG in GST-pull-down fraction is shown as a bar graph (bottom). One of three independent experiments is presented (top, n = 3). Data are represented as mean ± SEM); P values were determined by one-way ANOVA followed Dunnett’s multiple comparisons test. b Analysis of HA-CRTC2 immunoprecipitated with endogenous CREB from primary hepatocyte lysates. APC (10 μM) was added to the culture media for 1-h before 30-min of stimulation with glucagon (Gluc, 100 nM) and the following IP mixture as indicated. Top panel presents one of three independent experiments, and the relative gray density of HA in CREB-IP-faction is shown as a bar graph (bottom, n = 3). Data are represented as mean ± SEM; P values were determined by one-way ANOVA followed Dunnett’s multiple comparisons test. c Immunoblotting analysis of endogenous CREB, CRTC2, and CBP interaction by an anti-CRTC2 antibody from the lysate of primary hepatocytes. APC (10 μM) was added to the culture media for 1-h before 30-min stimulation with glucagon. Related CREB and CBP normalized by CRTC2, respectively, in CRTC2-IP fractions. The top panel presents one of three independent experiments, and the relative gray density of CREB and CBP normalized to CRTC2 in the CRTC2-IP-faction is shown as a bar graph (bottom, n = 3). Data are represented as mean ± SEM; P values were determined by two-way ANOVA followed Bonferroni’s multiple comparisons test. d Immunoblotting analysis of protein GST-CREB recovered HIS-CRTC2-S171A proteins purified from E. coli. The addition of APC (5, 10, or 50 μM) in pull-down mixtures is indicated. The top part presents one of three independent experiments, and the relative gray density of HIS normalized to GST in GST-pull-down faction is shown as a bar graph (bottom, n = 3). Data are represented as mean ± SEM; P values were determined by one-way ANOVA followed Dunnett’s multiple comparisons test (compared with APC = 0).\nImmunoblotting and immunoprecipitation assays were performed as previously described, with antibodies recognizing CREB, Ser133-P-CREB, AMPK, P-AMPK, AKT, P-AKT (Cell Signaling), PGC-1α (Merck), CRTC2 (Calbiochem), PCK1 (Santa Cruz), SREBP1 (Santa Cruz), SREBP2 (BD), HA (Convance), LXRα (Santa Cruz), FLAG (Sigma), GST (Covance), HIS (Abmart), GAPDH (AOGMA), α-TUBULIN (Abmart), β-ACTIN (Abmart), and other antibodies (Supplementary Table 3). For immunostaining assays, primary cultured hepatocytes seeded on coverslips were fixed with 4% paraformaldehyde for 20 min, permeabilized with 0.3% Triton X-100 in PBS, and then blocked by 5% normal goat serum and 0.3% Triton X-100 in PBS, followed by incubation with anti-CREB (1:1000), anti-P-CREB (1:1000), or anti-HA (1:3000) antibodies for 1 h at 4 °C. Slides were then washed, and after washing, slides were incubated with fluorochrome-conjugated secondary antibodies (Invitrogen). Slides were then washed and mounted with Vectashield mounting media containing 4, 6-diamidino-2-phenylindole (DAPI)."}, "[4]": {"conditions": "mean over Gluc0, Gluc30, Gluc60"}, "[5]": {"conditions": "primary hepatocytes exposed to glucagon, APC 10 μM"}}, "note": "Values joined by “and” are separate entries in the source; they are usually repeats but may differ in a detail not shown here. Identical values can stand only once.", "data": [{"smiles": "CC(C)=CCc1cc(C=CC(=O)O)cc(CC=C(C)C)c1O", "note": "[APC, 3,5-diprenyl-4-hydroxycinnamic acid]", "values": [{"measurement": "CREB/CRTC2 band gray signal, CRTC2-COIP fraction", "setting": "[1]; Fig 2c replicates, APC+ (10 μM)", "result": "0.6304 and 0.625 and 0.6291"}, {"measurement": "endogenous CREB co-immunoprecipitated by anti-CRTC2 antibody", "setting": "[1]; primary hepatocyte lysates, APC 10 μM", "result": "significantly decreased"}, {"measurement": "ChIP CREB in LXRa promoter, Input %", "setting": "[2]; ChIP-CREB, LXRa promoter, individual replicates, n=4", "result": "48.6099 Input % and 36.4614 Input % and 38.9243 Input % and 32.1584 Input %"}, {"measurement": "ChIP CREB in LXRa promoter, group mean (Mean 1)", "setting": "[2]; ChIP-CREB, LXRa promoter, mean of N=4", "result": 39.04, "unit": "Input %"}, {"measurement": "ChIP CRTC2 in LXRa promoter, Input %", "setting": "[2]; ChIP-CRTC2, LXRa promoter, individual replicates, n=4", "result": "91.9916 Input % and 76.2395 Input % and 65.9044 Input % and 83.3167 Input %"}, {"measurement": "ChIP CRTC2 in LXRa promoter, group mean (Mean 1)", "setting": "[2]; ChIP-CRTC2, LXRa promoter, mean of N=4", "result": 79.36, "unit": "Input %"}, {"measurement": "ChIP-IgG in LXRa promoter, Input %", "setting": "[2]; ChIP-IgG (control antibody), LXRa promoter, individual replicates, n=4", "result": "0.8383 Input % and 0.5702 Input % and 0.8279 Input % and 1.761 Input %"}, {"measurement": "ChIP-IgG in LXRa promoter, group mean (Mean 1)", "setting": "[2]; ChIP-IgG (control antibody), LXRa promoter, mean of N=4", "result": 0.9995, "unit": "Input %"}, {"measurement": "ChIP: LXRa recuited in Srebf1 promoter, relative enrichment folds, group mean (Mean 1)", "setting": "[2]; ChIP-LXRa, Srebf1 promoter, mean of N=4", "result": 0.4914, "unit": "fold"}, {"measurement": "ChIP: RXRa recuited in Srebf1 promoter, relative enrichment folds, group mean (Mean 1)", "setting": "[2]; ChIP-RXRa, Srebf1 promoter, mean of N=4", "result": 0.5838, "unit": "fold"}, {"measurement": "ChIP: LXRa recuited in Srebf1 promoter, relative enrichment folds", "setting": "[2]; ChIP:LXRa, Srebf1 promoter, individual replicates, n=4", "result": "0.5482 fold and 0.5209 fold and 0.4024 fold and 0.494 fold"}, {"measurement": "ChIP: RXRa recuited in Srebf1 promoter, relative enrichment folds", "setting": "[2]; ChIP:RXRa, Srebf1 promoter, individual replicates, n=4", "result": "0.4207 fold and 0.6691 fold and 0.5173 fold and 0.7279 fold"}, {"measurement": "ChIP: CBP, CRE-PGC1a, mean", "setting": "[2]; Gluc0", "result": 0.891}, {"measurement": "ChIP: CBP, CRE-Pck1, mean", "setting": "[2]; Gluc0", "result": 0.921}, {"measurement": "ChIP: CBP, CRE-PGC1a, mean", "setting": "[2]; Gluc30", "result": 0.574}, {"measurement": "ChIP: CBP, CRE-Pck1, mean", "setting": "[2]; Gluc30", "result": 0.749}, {"measurement": "ChIP: CBP, CRE-PGC1a, mean", "setting": "[2]; Gluc60", "result": 0.582}, {"measurement": "ChIP: CBP, CRE-Pck1, mean", "setting": "[2]; Gluc60", "result": 0.834}, {"measurement": "Mean of APC_ChIP: CBP, CRE-G6pc", "setting": "[2]; [4]", "result": 1.496}, {"measurement": "Mean of ChIP: CBP & APC, CRE-Pck1", "setting": "[2]; [4]", "result": 0.835}, {"measurement": "Mean of ChIP: CBP & APC, CRE-Pgc-1a", "setting": "[2]; [4]", "result": 0.682}, {"measurement": "CRTC2 recruited to CRE sites of G6pc, Pgc-1α and Pck1 promoters (ChIP)", "setting": "[2]; [5]", "result": "significantly attenuated"}, {"measurement": "occupancy of CREB or CBP at CRE sites (ChIP)", "setting": "[2]; [5]", "result": "little effect"}, {"measurement": "LXRα and RXRα recruited to LXRE element of Srebf1 promoter (ChIP)", "setting": "[2]; primary hepatocytes, APC 10 μM", "result": "reduced"}, {"measurement": "occupancy of CRTC2 on half CRE site of Lxrα promoter (ChIP)", "setting": "[2]; primary hepatocytes, glucagon, APC 10 μM", "result": "attenuated"}, {"measurement": "HA/CREB in CREB-COIP fraction", "setting": "[3]; APC +, Gluc +, APC in IP system +", "result": "93.4971 and 123.554 and 124.784"}, {"measurement": "HA/CREB in CREB-COIP fraction", "setting": "[3]; APC +, Gluc +, APC in IP system -", "result": "234.39 and 222.083 and 222.525"}, {"measurement": "HA/CREB in CREB-COIP fraction", "setting": "[3]; APC +, Gluc -, APC in IP system +", "result": "106.115 and 87.7697 and 106.142"}, {"measurement": "HA/CREB in CREB-COIP fraction", "setting": "[3]; APC +, Gluc -, APC in IP system -", "result": "166.202 and 169.06 and 171.069"}, {"measurement": "HA/CREB in CREB-COIP fraction", "setting": "[3]; APC -, Gluc +, APC in IP system +", "result": "192.388 and 190.79 and 193.652"}, {"measurement": "HA/CREB in CREB-COIP fraction", "setting": "[3]; APC -, Gluc -, APC in IP system +", "result": "107.959 and 107.638 and 128.065"}, {"measurement": "HA-tagged CRTC2 immunoprecipitated by anti-CREB antibody", "setting": "[3]; primary hepatocytes, with or without glucagon, APC 10 μM", "result": "greatly decreased"}]}]}
